Data published in patent publication US8318736B2, “HIV inhibiting 5,6-substituted pyrimidines” (Janssen R&D Ireland, priority 2006, dated 2012).
Like-named read-outs stand apart in the source and are kept apart here.

Legend:
HIV strain L100I + K103N = assay: microbe, parasite or virus in culture; type: cell-based, HIV-1; details: L100I + K103N strain; MT4 LTR-EGFP cells
From the text: (§1) Image analysis allowed very sensitive detection of viral infection.

[1] = target: HIV strain MDR (L100I, K103N, Y181C, E138G, V1791, L2214F, V278V/I and A327A/V in HIV reverse transcriptase); assay: microbe, parasite or virus in culture; type: cell-based, HIV-1; details: MDR strain; MT4 LTR-EGFP cells
From the text: as §1
“MDR” refers to a strain that contains mutations L100I, K103N, Y181C, E138G, V1791, L2214F, V278V/I and A327A/V in HIV reverse transcriptase.

[2] = test system: HIV strain IIIB (wild type); assay: microbe, parasite or virus in culture; details: for pSI (IIIB) (-log SI; SI = ratio of CC50 to EC50): strain IIIB, CC50 in mock-infected MT4 CMV-EGFP cells
Method: Compounds of the invention were tested for their potency against wild type virus and clinically isolated HIV strains harboring one or more mutations associated with resistance to reverse transcriptase inhibitors. Antiviral activity was evaluated using a cellular assay performed according to the following procedure.
The human T-cell line MT4 was engineered with Green Fluorescent Protein (GFP) and a HIV-specific promoter, HIV-1 long terminal repeat (LTR). This cell line, designated MT4 LTR-EGFP, can be used for the in vitro evaluation of anti-HIV activity of investigational compounds. In HIV-1 infected cells, the Tat protein is produced, which upregulates the LTR promotor and eventually leads to stimulation of the GFP reporter production, allowing to measure ongoing HIV-infection fluorometrically.
Analogously, MT4 cells were engineered with GFP and the constitutional cytomegalovirus (CMV) promotor. This cell line was designated MT4 CMV-EGFP, and can be used for the in vitro evaluation of cytotoxicity of investigational compounds. […] Cytotoxic investigational compounds reduce GFP levels of mock-infected MT4 CMV-EGFP cells.
The ratio of CC50 to EC50 is defined as the selectivity index (SI) and is an indication of the selectivity of the anti-HIV activity of the inhibitor. The ultimate monitoring of HIV-1 infection and cytotoxicity was done using a scanning microscope. […] Measurements were done before cell necrosis, which usually takes place about five days after infection, in particular measurements were performed three days after infection.
The columns IIIB, L100I, etc. in the table list the pEC50 (−log EC50) values against various strains IIIB, L100I, etc.; pSI lists the −log SI values.
Strain IIIB is wild type HIV strain.

[3] = wild type HIV strain IIIB, MT4 LTR-EGFP cells, three days after infection

| SMILES | melting point [°C] | L100I + K103N pEC50 (-log EC50) (HIV strain L100I + K103N) | MDR pEC50 (-log EC50) [1] | pSI (IIIB) (-log SI; SI = ratio of CC50 to EC50) [2] | IIIB pEC50 (-log EC50) [2, 3] | IIIB pEC50 (-log EC50) [2] |
| --- | --- | --- | --- | --- | --- | --- |
| COCc1nc(Nc2ccc(C#N)cc2)nc(Nc2ccc(/C=C/C#N)cc2)c1/C=C/c1ccc(C)cc1 | 139 |  |  |  |  |  |
| COCc1nc(Nc2ccc(C#N)cc2)nc(Nc2ccc(/C=C/C#N)cc2)c1/C=C/c1ccc(OC)cc1 | 207 |  |  |  |  |  |
| C=C(OCC)c1c(COC)nc(Nc2ccc(C#N)cc2)nc1Nc1ccc(/C=C/C#N)cc1 | 102 |  |  |  |  |  |
| COCc1nc(Nc2ccc(C#N)cc2)nc(Nc2ccc(/C=C/C#N)cc2)c1C#Cc1cccnc1 | 210 |  |  |  |  |  |
| COCc1nc(Nc2ccc(C#N)cc2)nc(Nc2c(C)cc(C=CC#N)cc2C)c1C(=O)NCc1cccnc1 (mixture of isomers) [Compound 8] |  | 7.57 | 7.07 | 3.13 | 8.54 |  |
| COCc1nc(Nc2ccc(C#N)cc2)nc(Nc2c(C)cc(C=CC#N)cc2C)c1C(=O)NCC1CCCO1 (mixture of isomers) [Compound 9] |  | 7.26 | 6.45 | 3.55 | 8.28 |  |
| COCCNC(=O)c1c(COC)nc(Nc2ccc(C#N)cc2)nc1Nc1c(C)cc(C=CC#N)cc1C (mixture of isomers) [Compound 10] |  | 8.10 | 7.30 | 3.44 | 8.46 |  |
| COCc1nc(Nc2ccc(C#N)cc2)nc(Nc2c(C)cc(C=CC#N)cc2C)c1C(=O)NCc1ccncc1 (mixture of isomers) [Compound 11] |  | 7.43 | 7.24 | 3.59 | 8.47 |  |
| COCc1nc(Nc2ccc(C#N)cc2)nc(Nc2c(C)cc(C=CC#N)cc2C)c1C(=O)NCCNC(C)=O (mixture of isomers) [Compound 12] |  | 7.42 | 6.68 | 3.59 | 8.25 |  |
| COCc1nc(Nc2ccc(C#N)cc2)nc(Nc2c(C)cc(C=CC#N)cc2C)c1C(=O)NCCN1CCOCC1 (mixture of isomers) [Compound 14] |  | 6.67 | 6.42 | 3.70 | 8.41 |  |
| COCc1nc(Nc2ccc(C#N)cc2)nc(Nc2c(C)cc(C=CC#N)cc2C)c1C(=O)NCCC#N (mixture of isomers) [Compound 16] |  | 7.55 | 7.03 | 4.22 | 8.90 |  |
| COCc1nc(Nc2ccc(C#N)cc2)nc(Nc2c(C)cc(C=CC#N)cc2C)c1C(=O)NCc1cccs1 (mixture of isomers) [Compound 18] |  | 6.97 | 6.42 | >3.63 | 8.23 |  |
| COCc1nc(Nc2ccc(C#N)cc2)nc(Nc2c(C)cc(C=CC#N)cc2C)c1C(=O)N(C)CCN(C)C (mixture of isomers) [Compound 21] |  | 6.31 | 5.44 | 2.53 | 7.49 |  |
| COCc1nc(Nc2ccc(C#N)cc2)nc(Nc2c(C)cc(C=CC#N)cc2C)c1C(=O)N1CCCC(C(N)=O)C1 (mixture of isomers) [Compound 22] |  | 6.22 | 5.64 | >2.66 | 7.27 |  |
| COCc1nc(Nc2ccc(C#N)cc2)nc(Nc2c(C)cc(C=CC#N)cc2C)c1C(=O)N(C)OC (mixture of isomers) [Compound 25] |  | 7.19 | 6.27 | 4.02 | 8.72 |  |
| COCc1nc(Nc2ccc(C#N)cc2)nc(Nc2c(C)cc(C=CC#N)cc2C)c1C(=O)N1CCC(O)CC1 (mixture of isomers) [Compound 27] |  | 5.79 | 5.21 | >3.61 | 8.21 |  |
| COCc1nc(Nc2ccc(C#N)cc2)nc(Nc2c(C)cc(C=CC#N)cc2C)c1C(=O)NCCc1ccc(S(N)(=O)=O)cc1 (mixture of isomers) [Compound 29] |  | 7.01 | 6.72 | >3.23 | 7.83 |  |
| COCCNC(=O)c1c(COC)nc(Nc2ccc(C#N)cc2)nc1Nc1c(C)cc(C=C(C)C#N)cc1C (mixture of isomers) [Compound 32] |  | 7.80 | 7.05 |  | 8.48 |  |
| COCc1nc(Nc2ccc(C#N)cc2)nc(Oc2c(C)cc(C=CC#N)cc2C)c1C(=O)NCc1ccncc1 (mixture of isomers) [Compound 33] |  | 7.03 | 5.91 | 3.54 | 8.40 |  |
| COCc1nc(Nc2ccc(C#N)cc2)nc(Oc2c(C)cc(C=C(C)C#N)cc2C)c1C(=O)NCc1ccncc1 (mixture of isomers) [Compound 34] |  | 6.49 | 5.81 | 3.22 | 8.38 |  |
| COCCNC(=O)c1c(COC)nc(Nc2ccc(C#N)cc2)nc1Oc1c(C)cc(C=CC#N)cc1C (mixture of isomers) [Compound 35] |  | 7.09 | 6.18 | 3.76 | 8.54 |  |
| COCc1nc(Nc2ccc(C#N)cc2)nc(Nc2c(C)cc(/C=C/C#N)cc2C)c1C(=O)NCCN(C)C [Compound 13] |  | 6.81 | 5.69 | 3.32 | 8.41 |  |
| COCc1nc(Nc2ccc(C#N)cc2)nc(Nc2c(C)cc(/C=C/C#N)cc2C)c1C(=O)NCCc1ccccn1 [Compound 15] |  | 7.24 | 6.43 | 3.52 | 8.55 |  |
| COCc1nc(Nc2ccc(C#N)cc2)nc(Nc2c(C)cc(/C=C/C#N)cc2C)c1C(=O)N1CCN(CCO)CC1 [Compound 17] |  | 6.59 | 5.19 | >2.83 | 7.43 |  |
| COCc1nc(Nc2ccc(C#N)cc2)nc(Nc2c(C)cc(/C=C/C#N)cc2C)c1C(=O)NCC(OC)OC [Compound 19] |  | 7.38 | 6.97 | 3.83 | 8.59 |  |
| COCc1nc(Nc2ccc(C#N)cc2)nc(Nc2c(C)cc(/C=C/C#N)cc2C)c1C(=O)NCc1ccccn1 [Compound 20] |  | 7.28 | 7.03 | 3.81 | 8.83 |  |
| COCc1nc(Nc2ccc(C#N)cc2)nc(Nc2c(C)cc(/C=C/C#N)cc2C)c1C(=O)NC1CC1 [Compound 23] |  | 7.81 | 6.85 | 3.87 | 8.62 |  |
| C=CCNC(=O)c1c(COC)nc(Nc2ccc(C#N)cc2)nc1Nc1c(C)cc(/C=C/C#N)cc1C [Compound 24] |  | 7.99 | 6.72 |  |  | 8.66 |
| COCc1nc(Nc2ccc(C#N)cc2)nc(Nc2c(C)cc(/C=C/C#N)cc2C)c1C(=O)NCCc1cccs1 [Compound 30] |  | 6.67 | 5.79 | >3.24 | 7.84 |  |
